From patent publication US20230345936A1, “NOVEL ENVIRONMENT-FRIENDLY HERBICIDE” (KUNMING INSTITUTE OF BOTANY, CHINESE ACADEMY OF SCIENCES, priority 2022, published 2023)

Key:
[1] = test system: Eupatorium adenophorum; assay: Spraying herbicide aqueous solution on Eupatorium adenophorum plants (contact killing); assay type: in vivo
Experimental: (1) 25 mL of the methyl 4-hydroxyphenylacetate herbicide aqueous solution prepared in Example 1 was taken and sprayed evenly on the surface of Eupatorium adenophorum plants.
When not sprayed, the Eupatorium adenophorum plant had one pair of top leaves, one head inflorescence, one pair of tender leaves under the top leaves, and three pairs of mature leaves. The plant was healthy and vigorous, with a height of 40-50 cm. […] The uppermost one pair of mature leaves among the three pairs of mature leaves withered in a large area. The lower two pairs of mature leaves began to wither from the edge inwards, and the axillary buds also died. These deaths were irreversible.
(2) 25 mL of the methyl 4-hydroxyphenylacetate herbicide aqueous solution prepared in Example 3 was taken and sprayed evenly on the surface of Eupatorium adenophorum plants.
When not sprayed, the Eupatorium adenophorum plant had one pair of top leaves, one head inflorescence, one pair of tender leaves under the inflorescence, and four pairs of mature leaves. The plant was healthy and vigorous, with a height of 40-50 cm.
(5) 25 mL of the methyl 4-hydroxyphenylacetate herbicide aqueous solutions prepared in Comparative Examples 1 to 2 were taken and sprayed evenly on the surface of Eupatorium adenophorum plants.

[2] = Dissolution of methyl 4-hydroxyphenylacetate in 15% ethanol solution; assay type: physicochemical; conditions: 1.82787 g in 50 mL of 15% ethanol solution
Experimental: The methyl 4-hydroxyphenylacetate was purchased on the market. 1.82787 g of methyl 4-hydroxyphenylacetate was weighed, and added with 50 mL of a 15% absolute ethanol solution for dissolution.

## COC(=O)Cc1ccc(O)cc1 [methyl 4-hydroxyphenylacetate, Methyl 4-hydroxyphenylacetate]
[1]; sprayed once
  effect on Eupatorium adenophorum at use concentration greater than 150 mmol/L: contact killing effect
[1]; use concentration greater than 150 mmol/L
  time after spraying until old leaves / plant are basically withered: 4 to 5 days
[2]
  solubility in 15% absolute ethanol solution: could not be sufficiently dissolved
